pIC50: −log10 of the molar value.

Drawing on US20240343722A1 (VIFOR (INTERNATIONAL) AG, priority 2021, published 2024), this text covers IC50 for 23 compounds.

In this assay the target is T1, ferroportin (Fpn) (Mus musculus, UniProt Q9JHI9).
T1 construct: endogenous in cells; host or cells: J774 mouse macrophage cell line, induced with Fe(III)NTA
T1 sequence (Q9JHI9 1-570): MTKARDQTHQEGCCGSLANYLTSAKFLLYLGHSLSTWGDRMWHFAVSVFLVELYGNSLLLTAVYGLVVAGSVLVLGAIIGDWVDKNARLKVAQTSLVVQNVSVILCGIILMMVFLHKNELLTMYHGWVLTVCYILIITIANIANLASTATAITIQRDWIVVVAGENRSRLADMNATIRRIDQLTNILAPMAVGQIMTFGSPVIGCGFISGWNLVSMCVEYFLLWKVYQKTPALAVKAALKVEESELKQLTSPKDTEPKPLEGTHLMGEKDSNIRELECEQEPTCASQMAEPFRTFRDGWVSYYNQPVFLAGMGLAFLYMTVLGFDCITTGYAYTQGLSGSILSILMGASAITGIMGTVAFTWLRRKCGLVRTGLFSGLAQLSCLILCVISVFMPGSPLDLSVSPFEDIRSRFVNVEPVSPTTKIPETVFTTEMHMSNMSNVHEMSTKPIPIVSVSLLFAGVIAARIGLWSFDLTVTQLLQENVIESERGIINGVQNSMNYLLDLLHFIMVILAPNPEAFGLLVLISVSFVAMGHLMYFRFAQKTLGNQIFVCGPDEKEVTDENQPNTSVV
Kind of assay: Hepcidin Internalization Assay (J774). The assay is classed as cell-based. Particulars: Average (AVE) IC50 of multiple measurements; inhibition of TMR-hepcidin (25 nM) internalization into J774 cells. From the text: This cellular assay allows quantification of the binding of hepcidin to ferroportin (Fpn) through microscopic detection of internalization of a fluorescently labeled hepcidin into J774 cells. […] Binding of hepcidin to Fpn triggers internalization and degradation of both hepcidin and Fpn. […] Therefore, microscopic detection of cell-associated TMR fluorescence is a measure of hepcidin binding to Fpn and internalization of hepcidin and Fpn. If TMR-hepcidin is prevented from binding to Fpn, cellular TMR fluorescence remains low (Durrenberger et al, 2013). The effect of small molecular weight Fpn inhibitor compounds in this assay was evaluated in vitro as described below. […] After removal of the paraformaldehyde solution, cells were washed 3 times with PBS leaving 100 μl per well and the plates were sealed with foil plate seal. TMR (530-550 nm excitation/575-625 nm emission/400 ms exposure time) and Hoechst 33342 (360-370 nm excitation/420-460 nm emission /10 ms exposure time) fluorescence images were acquired using a […] imager (Olympus) with a 20× high NA objective. […] The acquired image data was analysed with the […] analysis software. […] IC50 values were calculated with the Sum(Mean) raw data using “log(inhibitor) vs. response” curve fitting of Prism 5 software (GraphPad Software Inc., version 5.02). For each data set the fit of the “log(inhibitor) vs. response (three parameters)” model was compared to the fit of the “log(inhibitor) vs. response - Variable slope (four parameters)” model and the IC50 data of the preferred model was used.
In turn, `O=C(NCc1ncccc1F)c1coc(CCNCCc2nc3ccccc3n2CC(F)F)n1` [Example 53, 2-(2-((2-(1-(2,2-difluoroethyl)-1H-benzo[d]imidazol-2-yl)ethyl)amino)ethyl)-N-((3-fluoropyridin-2-yl)methyl)oxazole-4-carboxamide] showed a pIC50 of 8.30.
`CCCCn1c(CCNCCc2nc(C(=O)NCc3ncccc3F)co2)nc2cc(-c3ccccc3)ccc21` [Example 42, 2-(2-((2-(1-butyl-5-phenyl-1 H-benzo[d]imidazol-2-yl)ethyl)amino)ethyl)-N-((3-fluoropyridin-2-yl)methyl)oxazole-4-carboxamide] gave a negative logarithm of the IC50 (pIC50) of 8.62.
As for `O=C(NCc1ncccc1F)c1coc(CCNCCc2nc3ccccc3n2Cc2ccccc2)n1` [Example 17, 2-(2-((2-(1-benzyl-1 H-benzo[d]imidazol-2-yl)ethyl)amino)ethyl)-N-((3-fluoropyridin-2-yl)methyl)oxazole-4-carboxamide], the figure is 9.10; as for `CC(C)OCCn1c(CCNCCc2nc(C(=O)NCc3ncccc3F)co2)nc2cc3c(cc21)OCCO3` [Example 73, N-((3-fluoropyridin-2-yl)methyl)-2-(2-((2-(1-(2-isopropoxyethyl)-6,7-dihydro-1 H-[1,4]dioxino[2′,3′:4,5]benzo[1,2-d]imidazol-2-yl)ethyl)amino)ethyl)oxazole-4-carboxamide], 8.59; as for `CC(C)OCCn1c(CCNCCc2nc(C(=O)NCc3ncccc3F)co2)nc2ccccc21` [Example 57, N-((3-fluoropyridin-2-yl)methyl)-2-(2-((2-(1-(2-isopropoxyethyl)-1 H-benzo[d]imidazol-2-yl)ethyl)amino)ethyl)oxazole-4-carboxamide], 8.85.
As for `O=C(NCc1ncccc1F)c1coc(CCNCCc2nc3ccccc3n2CCc2ccccn2)n1` [Example 35, N-((3-fluoropyridin-2-yl)methyl)-2-(2-((2-(1-(2-(pyridin-2-yl)ethyl)-1H-benzo[d]imidazol-2-yl)ethyl)amino)ethyl)oxazole-4-carboxamide], the figure is 8.70.
`O=C(NCc1ncccc1F)c1coc(CCNCCc2nc3cc4c(cc3n2-c2ccccc2)OCCO4)n1` [Example 83, N-((3-fluoropyridin-2-yl)methyl)-2-(2-((2-(1-phenyl-6,7-dihydro-1 H-[1,4]dioxino[2′,3′:4,5]benzo[1,2-d]imidazol-2-yl)ethyl)amino)ethyl)oxazole-4-carboxamide]: the pIC50 was 8.72.
As for `COCCn1c(CCNCCc2nc(C(=O)NCc3ncccc3F)co2)nc2ccccc21` [Example 1, N-((3-fluoropyridin-2-yl)methyl)-2-(2-((2-(1-(2-methoxyethyl)-1 H-benzo[d]imidazol-2-yl)ethyl)amino)ethyl)oxazole-4-carboxamide], the figure is 8.40; as for `COc1cccc(-n2c(CCNCCc3nc(C(=O)NCc4ncccc4OC)co3)nc3cc4c(cc32)OCCO4)c1` [Example 93, 2-(2-((2-(1-(3-methoxyphenyl)-6,7-dihydro-1 H-[1,4]dioxino[2′,3′:4,5]benzo[1,2-d]imidazol-2-yl)ethyl)amino)ethyl)-N-((3-methoxypyridin-2-yl)methyl)oxazole-4-carboxamide], 8.52.
`COc1cccnc1CNC(=O)c1coc(CCNCCc2nc3cc4c(cc3n2CCc2ncco2)OCCO4)n1` [Example 95, N-((3-methoxypyridin-2-yl)methyl)-2-(2-((2-(1-(2-(oxazol-2-yl)ethyl)-6,7-dihydro-1 H-[1,4]dioxino[2′,3′:4,5]benzo[1,2-d]imidazol-2-yl)ethyl)amino)ethyl)oxazole-4-carboxamide]: the pIC50 is 7.59.
In the case of `O=C(NCc1ncccc1F)c1coc(CCNCCc2nc3cc4c(cc3n2CCc2ncco2)OCCO4)n1` [Example 94, N-((3-fluoropyridin-2-yl)methyl)-2-(2-((2-(1-(2-(oxazol-2-yl)ethyl)-6,7-dihydro-1 H-[1,4]dioxino[2′,3′:4,5]benzo[1,2-d]imidazol-2-yl)ethyl)amino)ethyl)oxazole-4-carboxamide] it was 6.44.
`O=C(NCc1ncccc1F)c1coc(CCNCCc2nc3cc4c(cc3n2CCOC2CCCCC2)OCCO4)n1` [Example 88, 2-(2-((2-(1-(2-(cyclohexyloxy)ethyl)-6,7-dihydro-1H-[1,4]dioxino[2′,3′:4,5]benzo[1,2-d]imidazol-2-yl)ethyl)amino)ethyl)-N-((3-fluoropyridin-2-yl)methyl)oxazole-4-carboxamide] gave a negative logarithm of the IC50 (pIC50) of 9.05.
With `O=C(NCc1ncccc1F)c1coc(CCNCCc2nc3cc(C#Cc4ccccn4)ccc3n2CC2CC2)n1` [Example 89, 2-(2-((2-(1-(cyclopropylmethyl)-5-(pyridin-2-ylethynyl)-1 H-benzo[d]imidazol-2-yl)ethyl)amino)ethyl)-N-((3-fluoropyridin-2-yl)methyl)oxazole-4-carboxamide], the pIC50 was 8.40.
In the case of `CCCCn1c(CCNCCc2nc(C(=O)NCc3ccccn3)co2)nc2ccccc21` [Example 11, 2-(2-((2-(1-butyl-1 H-benzo[d]imidazol-2-yl)ethyl)amino)ethyl)-N-(pyridin-2-ylmethyl)oxazole-4-carboxamide] it was 8.70; in that of `O=C(NCc1ncccc1F)c1coc(CCNCCc2nc3ccccc3n2Cc2ccccc2Cl)n1` [Example 54, 2-(2-((2-(1-(2-chlorobenzyl)-1H-benzo[d]imidazol-2-yl)ethyl)amino)ethyl)-N-((3-fluoropyridin-2-yl)methyl)oxazole-4-carboxamide], 9.05; in that of `COc1cccc(-n2c(CCNCCc3nc(C(=O)NCc4ncccc4F)co3)nc3cc4c(cc32)OCO4)c1` [Example 75, N-((3-fluoropyridin-2-yl)methyl)-2-(2-((2-(5-(3-methoxyphenyl)-5H-[1,3]dioxolo[4′,5′:4,5]benzo[1,2-d]imidazol-6-yl)ethyl)amino)ethyl)oxazole-4-carboxamide], 8.89.
In turn, `CCCCn1c(C(C)(C)CNCCc2nc(C(=O)NCc3ncccc3F)co2)nc2ccccc21` [Example 60, 2-(2-((2-(1-butyl-1 H-benzo[d]imidazol-2-yl)-2-methylpropyl)amino)ethyl)-N-((3-fluoropyridin-2-yl)methyl)oxazole-4-carboxamide] showed a pIC50 of 6.45.
For `O=C(NCc1ncccc1F)c1coc(CCNCCc2nc3cc4c(cc3n2CCN2CCOCC2)OCCO4)n1` [Example 81, N-((3-fluoropyridin-2-yl)methyl)-2-(2-((2-(1-(2-morpholinoethyl)-6,7-dihydro-1 H-[1,4]dioxino[2′,3′:4,5]benzo[1,2-d]imidazol-2-yl)ethyl)amino)ethyl)oxazole-4-carboxamide], the pIC50 is 8.40.
As for `COCCOCCn1c(CCNCCc2nc(C(=O)NCc3ncccc3OC)co2)nc2cc3c(cc21)OCCO3` [Example 66, 2-(2-((2-(1-(2-(2-methoxyethoxy)ethyl)-6,7-dihydro-1 H-[1,4]dioxino[2′,3′:4,5]benzo[1,2-d]imidazol-2-yl)ethyl)amino)ethyl)-N-((3-methoxypyridin-2-yl)methyl)oxazole-4-carboxamide], the figure is 8.30.
As for `Cc1noc(C)c1CCn1c(CCNCCc2nc(C(=O)NCc3ncccc3F)co2)nc2ccccc21` [Example 30, 2-(2-((2-(1-(2-(3,5-dimethylisoxazol-4-yl)ethyl)-1 H-benzo[d]imidazol-2-yl)ethyl)amino)ethyl)-N-((3-fluoropyridin-2-yl)methyl)oxazole-4-carboxamide], the figure is 8.89; as for `CN1CCN(CCn2c(CCNCCc3nc(C(=O)NCc4ncccc4F)co3)nc3cc4c(cc32)OCCO4)CC1` [Example 84, N-((3-fluoropyridin-2-yl)methyl)-2-(2-((2-(1-(2-(4-methylpiperazin-1-yl)ethyl)-6,7-dihydro-1H-[1,4]dioxino[2′,3′:4,5]benzo[1,2-d]imidazol-2-yl)ethyl)amino)ethyl)oxazole-4-carboxamide], 6.82.
In the case of `O=C(NCc1ncccc1F)c1coc(CCNCCc2nc3cc4c(cc3n2CC2CC2)OCCO4)n1` [Example 65] it was 8.92; in that of `CCCCn1c(CCNCCc2nc(C(=O)NCc3ncccc3F)co2)nc2ccccc21` [Example 2, 2-(2-((2-(1-butyl-1 H-benzo[d]imidazol-2-yl)ethyl)amino)ethyl)-N-((3-fluoropyridin-2-yl)methyl)oxazole-4-carboxamide], 9.00.
